Data as given in publication PMC9958940 (Viruses, 2023).
Read-outs that look alike come from different tables or passages of the source. Starred links: 1 amine or outer side, 2 acyl side, 3 side chain; linkers in the order of their positions; H or OH if unused. Positions of bridges follow the written chain, without caps; N, C: chain ends. Non-standard residues stand in square brackets, D forms with d. Residues, ends and D or L forms follow the SMILES beside them. *: point of attachment. hTyr(3S-OH,4S-OH,3'-OSO3H) = N[C@H](C(=O)O)[C@H](O)[C@@H](O)c1ccc(O)c(OS(=O)(=O)O)c1; pTerphenylCO(4''-OnC5H11) = CCCCCOc1ccc(-c2ccc(-c3ccc(C(=O)*)cc3)cc2)cc1; Orn(4R-OH,5R-OH) = O=C([C@H](C[C@@H](O)[C@@H](O)N[*:3])N[*:1])[*:2]; hTyr(3S-OH,4S-OH) = N[C@H](C(=O)O)[C@H](O)[C@@H](O)c1ccc(O)cc1; Pro(3S-OH,4S-Me) = C[C@H]1CN[C@H](C(=O)O)[C@H]1O; X1 = CCCCCOc1ccc(-c2cc(-c3ccc(C(=O)*)cc3)no2)cc1; Gln(3R-OH) = NC(=O)C[C@@H](O)[C@H](N)C(=O)O; Hyp = O=C(O)[C@@H]1C[C@@H](O)CN1

Tests used:
SARS-CoV-2 Wuhan strain [1] = experiment: microbe, parasite or virus in culture; assay type: cell-based; conditions: VeroE6/TMPRSS2 cells; for IC50: Severe acute respiratory syndrome coronavirus 2, Wuhan strain, MOI 0.003, extracellular viral RNA at 24 h
[2] = Cell viability (cell-counting kit-8, WST-8) in Calu-3 cells; assay type: cell-based; conditions: human, 24 h with compound
[3] = tested on: Chikungunya virus (CHIKV); design: method as in ref [11] = [11]; conditions: U2OS or BHK-21 cells; ref [11]; read-out: IC50, CHIKV infection; cited from earlier work
[4] = design: method as in ref [7] = [7]; conditions: human adults, 100 mg daily; ref [7]; cited from earlier work
[5] = tested on: Dengue virus serotype 2 (DENV-2); design: method as in ref [12] = [12]; conditions: Vero cells; ref [12]; read-out: IC50, DENV-2 infection; cited from earlier work
[6] = tested on: Enterovirus 71 (EV71) replicon; design: method as in ref [10] = [10]; conditions: Vero cells, estimated; ref [10]; read-out: IC50 to luciferase carrying EV71 replicon; cited from earlier work
[7] = Cell viability (cell-counting kit-8, WST-8) in VeroE6/TMPRSS2 cells; assay type: cell-based; conditions: African green monkey, 24 h with compound
Zika virus (ZIKV) = tested on: Zika virus (ZIKV); design: method as in ref [14] = [14]; conditions: Vero cells; ref [14]; read-out: IC50, ZIKV infection; cited from earlier work
SARS-CoV-2 = conditions: Vero cells, read-out: IC50, SARS-CoV-2 infection, cited from earlier work
helicase of DENV-2 = molecular target: helicase of DENV-2; design: method as in ref [13] = [13]; conditions: in vitro; ref [13]; read-out: IC50, DENV-2 helicase enzymatic activity; cited from earlier work
3CLpro = tested on: 3CLpro; design: method as in ref [33] = [33]; conditions: in vitro; ref [33]; read-out: IC50, 3CLpro enzymatic activity; cited from earlier work
SARS-CoV-2 Wuhan strain [8] = experiment: microbe, parasite or virus in culture; assay type: cell-based; conditions: Severe acute respiratory syndrome coronavirus 2, 24 h, Calu-3 cells, 3 h inoculation plus 21 h, read-out: SARS-CoV-2 RNA IC50
SARS-CoV-2 Wuhan strain [9] = conditions: VeroE6/TMPRSS2 cells, essentially in the same experimental condition; ref Ohashi et al. [29]; read-out: SARS-CoV-2 RNA IC50; cited from earlier work
VeroE6/TMPRSS2 cells = conditions: read-out: Cell Viability CC50, essentially in the same experimental condition, ref Ohashi et al. [29]; cited from earlier work
SARS-CoV-2 Wuhan strain [10] = assay type: cell-based

SMILES	IC50 (SARS-CoV-2 Wuhan strain [1]) [µM]	IC50 [5] [µM]	CC50 at 24 h [7] [µM]	IC50 (Zika virus (ZIKV)) [µM]	IC50 (SARS-CoV-2 Wuhan strain [9]) [µM]	CC50 (VeroE6/TMPRSS2 cells) [µM]	effect on viral RNA levels, compound added at post-entry phase (SARS-CoV-2 Wuhan strain [10])	effect on viral RNA levels, compound added at virus entry phase (SARS-CoV-2 Wuhan strain [10])	other results
CCCCCOc1ccc(-c2cc(-c3ccc(C(=O)N[C@H]4C[C@@H](O)[C@@H](O)NC(=O)[C@@H]5[C@@H](O)[C@@H](C)CN5C(=O)[C@H]([C@H](O)CC(N)=O)NC(=O)[C@H]([C@H](O)[C@@H](O)c5ccc(O)c(OS(=O)(=O)O)c5)NC(=O)[C@@H]5C[C@@H](O)CN5C(=O)[C@H]([C@@H](C)O)NC4=O)cc3)no2)cc1 [Micafungin] (X1-[Orn(4R-OH,5R-OH)]T[Hyp][hTyr(3S-OH,4S-OH,3'-OSO3H)][Gln(3R-OH)][Pro(3S-OH,4S-Me)]; lactam 1-C)	26.1	10.2	> 64	7.35					selectivity index (SI = CC50/IC50) (SARS-CoV-2 Wuhan strain [1]): > 2.45; CC50 at 24 h [2]: > 64 µM; IC50 [3]: 20.6 µM; half-life [4]: 11 to 17 h; IC50 [6]: 5 to 8 µM; IC50 (SARS-CoV-2; ref [15]): 5.5 to 12.9 µM; IC50 (helicase of DENV-2): 4.98 µM; IC50 (3CLpro): 47.6 µM; IC50 (SARS-CoV-2 Wuhan strain [8]): 55.3 µM
CCC(CC)COC(=O)[C@H](C)N[P@](=O)(OC[C@H]1O[C@@](C#N)(c2ccc3c(N)ncnn23)[C@H](O)[C@@H]1O)Oc1ccccc1 [Remdesivir]					1.58	> 64	remarkable antiviral activity	no inhibitory effect	
CCCCCOc1ccc(-c2ccc(-c3ccc(C(=O)N[C@H]4C[C@@H](O)[C@@H](O)NC(=O)[C@@H]5[C@@H](O)[C@@H](C)CN5C(=O)[C@H]([C@@H](C)O)NC(=O)[C@H]([C@H](O)[C@@H](O)c5ccc(O)cc5)NC(=O)[C@@H]5C[C@@H](O)CN5C(=O)[C@H]([C@@H](C)O)NC4=O)cc3)cc2)cc1 [Anidulafungin] ({pTerphenylCO(4''-OnC5H11)}-[Orn(4R-OH,5R-OH)]T[Hyp][hTyr(3S-OH,4S-OH)]T[Pro(3S-OH,4S-Me)]; lactam 1-C)	7.09	3.24	24.6	2.08					IC50 (SARS-CoV-2; ref [16]): 4.64 µM
CC[C@H](C)C[C@H](C)CCCCCCCCC(=O)N[C@H]1C[C@@H](O)[C@@H](NCCN)NC(=O)[C@@H]2[C@@H](O)CCN2C(=O)[C@H]([C@H](O)CCN)NC(=O)[C@H]([C@H](O)[C@@H](O)c2ccc(O)cc2)NC(=O)[C@@H]2C[C@@H](O)CN2C(=O)[C@H]([C@@H](C)O)NC1=O [Caspofungin]	> 64	20.8	> 64	75.8					effect on viral RNA levels (in words) (SARS-CoV-2 Wuhan strain [1]; up to 64 µM): did not show any antiviral effect
COc1ccc2cc1Oc1ccc(cc1)C[C@H]1c3c(cc4c(c3Oc3cc5c(cc3OC)CCN(C)[C@@H]5C2)OCO4)CCN1C [Cepharanthine]					0.35	25.1	lower viral activity	considerable inhibition	
